Among the data in patent EP0393512A1, “New 1,3-dioxolane-2-yl derivatives of 2-picolylamine” (J. URIACH & CIA. S.A., priority 1989, dated 1990) are IC50 and ED50 values, retold here.

The structures appear in SMILES notation. Like-named read-outs stand apart in the source and are kept apart here.

In experiment [1] the test system is platelet aggregation induced by PAF. In words: Inhibition of platelet aggregation induced by PAF (rabbit platelet rich plasma, Born nephelometric technique). Type of experiment: cell-based, New Zealand albino rabbits. Conditions: concentration needed to inhibit platelet aggregation by 50%, PAF (C₁₈) 16 nM final, read-out: IC₅₀. How it is done:
Inhibition of platelet aggregation induced by PAF.
The blood is obtained by cardiac puncture of male New Zealand albino rabbits (between 2 and 2.5 Kg of weight) and coagulation is prevented by adding 1 part of 3.16% sodium citrate dihydrate in 9 parts of blood. The platelet rich plasma (PRP) is prepared by blood centrifugation at 250xg for 10 min. at 4°C and it is diluted with platelet poor plasma (PPP) by additional centrifugation at 3000xg for 10 min. The amount of platelets is adjusted to […]. The platelet aggregation induced by PAF (C₁₈; prepared in our laboratory) (16 nM, final) is determined by the Born nephelometric technique (J. Physiol., 1962, 162 67) using a aggregometer Chrono-log 500.
The activities of the inhibitors are expressed as IC₅₀, that is to say the concentration of the drug needed to inhibit the platelet aggregation by 50%.

Experiment [2] relates to hypotension induced by PAF. In words: Inhibition of the hypotensive effect induced by PAF in normotense rats. Type of experiment: in vivo, Sprage Dawley rats. Conditions: Rattus norvegicus, iv; anesthetized male rats; compound given through the femoral vein 3 min before PAF (0.5 mcg/Kg, i.v.); average arterial pressure; read-out: IC₅₀. How it is done:
Inhibition of the hypotensive effect induced by PAF in normotense rats. Male Sprage Dawley rats, of 180-220 g of weight, anesthetized with sodium pentobarbital (50 mg/Kg, i.p. 1 mL/100 g) have been used. In order to measure the average arterial pressure, a polyethylene catheter is introduced into the carotid artery. The arterial pressure is recorded with the help of a transducer connected with a R611 Beckman polygraph. The tested compounds are administered through the femoral vein 3 min before the injection of PAF (0.5 mcg/Kg, i.v.).

With `CCCCCCCCCCCCCCCCCNC(=O)OCC1COC(COC(=O)N(Cc2ccccn2)C(C)=O)O1` (centres unmarked) [Compound 22, 2-[N-Acetyl-N-[((5-heptadecylcarbamoyloxymethyl-1,3-dioxolane-2-yl)methoxy)carbonyl]aminomethyl] pyridine], the IC50 in experiment [1] (Oryctolagus cuniculus) was < 50 nM. Also, the ED50 in experiment [2] was < 0.05 mg/kg.
Consider `CCCCCCCCCCCCCCCCOCC1COC(COC(=O)N(Cc2cccc[n+]2CC)C(=O)OCC)O1.[I-]` (centres unmarked) [Compound 11, 2-[N-Ethoxycarbonyl-N-[((5-hexadecyloxymethyl-1,3-dioxolane-2-yl)methoxy)carbonyl]aminomethyl]-1-ethylpyridinium iodide], for which the IC50 in experiment [1] (Oryctolagus cuniculus) was 140 nM. For the same compound, the ED50 in experiment [2] came out at 0.095 mg/kg.
Take `CCCCCCCCCCCCCCCCOCC1COC(COC(=O)N(Cc2ccccn2)C(C)=O)O1.Cl` (centres unmarked) [Compound 6, 2-[N-Acetyl-N-[((5-hexadecyloxymethyl-1,3-dioxolane-2-yl)methoxy)carbonyl]aminomethyl] pyridine hydrochloride]: the IC50 in experiment [1] (Oryctolagus cuniculus) was found to be 4000 nM. Moreover, the ED50 in experiment [2] is > 5 mg/kg.
Turning to `CCCCCCCCCCCCCCCCOCC1COC(COC(=O)N(Cc2cccc[n+]2CC)C(C)=O)O1.[Cl-]` (centres unmarked) [Compound 9, 2-[N-Acetyl-N-[((5-hexadecyloxymethyl-1,3-dioxolane-2-yl)methoxy)carbonyl]aminomethyl]-1-ethylpyridinium chloride], in experiment [1], the IC50 was < 50 nM. Also, the ED50 in experiment [2] is < 0.05 mg/kg.
With `CCCCCCCCCCCCCCCCCCOCC1COC(COC(=O)N(Cc2cccc[n+]2CC)C(C)=O)O1.[I-]` (centres unmarked) [Compound 14, 2-[N-Acetyl-N-[((5-octadecyloxymethyl-1,3-dioxolane-2-yl)methoxy)carbonyl]aminomethyl]-1-ethylpyridinium iodide], the IC50 in experiment [1] (Oryctolagus cuniculus) is 110 nM. In experiment [2], the ED50 is < 0.05 mg/kg.
The corresponding values for `CCCCCCCCCCCCCCOCC1COC(COC(=O)N(Cc2cccc[n+]2CC)C(C)=O)O1.[I-]` (centres unmarked) [Compound 17, 2-[N-Acetyl-N-[((5-tetradecyloxymethyl-1,3-dioxolane-2-yl)methoxy)carbonyl]aminomethyl]-1-ethylpyridinium iodide] are 150 nM and 0.2 mg/kg.
Take `CCCCCCCCCCCCCCCCOCC1COC(COC(=O)N(Cc2cccc[n+]2CC)C(C)=O)O1.[I-]` (centres unmarked) [Compound 8, 2-[N-Acetyl-N-[((5-hexadecyloxymethyl-1,3-dioxolane-2-yl)methoxy)carbonyl]aminomethyl]-1-ethylpyridinium iodide]: the IC50 in experiment [1] (Oryctolagus cuniculus) was < 50 nM. In experiment [2], the ED50 is < 0.05 mg/kg.
For `CCCCCCCCCCCCCCCNC(=O)OCC1COC(COC(=O)N(Cc2cccc[n+]2CC)C(C)=O)O1.[I-]` (centres unmarked) [Compound 20, 2-[N-Acetyl-N-[((5-pentadecylcarbamoyloxymethyl-1,3-dioxolane-2-yl)methoxy)carbonyl]aminomethyl]-1-ethylpyridinium iodide], the IC50 in experiment [1] (Oryctolagus cuniculus) is < 50 nM. Further, the ED50 in experiment [2] amounted to 0.093 mg/kg.
For `CCCCCCCCCCCCCCCCOCC1COC(COC(=O)N(Cc2cccc[n+]2C)C(C)=O)O1.[I-]` (centres unmarked) [Compound 7, 2-[N-Acetyl-N-[((5-hexadecyloxymethyl-1,3-dioxolane-2-yl)methoxy)carbonyl]aminomethyl]-1-methylpyridinium iodide], the IC50 in experiment [1] (Oryctolagus cuniculus) is 1000 nM. In addition, the ED50 in experiment [2] came out at 0.32 mg/kg.
Turning to `CCCCCCCCCCCCCCCCCC1COC(COC(=O)N(Cc2cccc[n+]2CC)C(C)=O)O1.[I-]` (centres unmarked) [Compound 3, 2-[N-Acetyl-N-[((5-heptadecyl-1,3-dioxolan-2-yl)methoxy)carbonyl]aminomethyl]-1-ethylpyridinium iodide], in experiment [1] (Oryctolagus cuniculus), the IC50 is < 50 nM. For the same compound, in experiment [2], the ED50 was 0.074 mg/kg.
